{"source": "patent US9718790B2", "about": "“Triazine derivative and pharmaceutical composition having an analgesic activity comprising the same” (SHIONOGI & CO., LTD., priority 2010, dated 2017)", "data": [{"target": "human P2X3 receptor (Homo sapiens (Human), UniProt P56373)", "sequence (P56373 whole entry)": "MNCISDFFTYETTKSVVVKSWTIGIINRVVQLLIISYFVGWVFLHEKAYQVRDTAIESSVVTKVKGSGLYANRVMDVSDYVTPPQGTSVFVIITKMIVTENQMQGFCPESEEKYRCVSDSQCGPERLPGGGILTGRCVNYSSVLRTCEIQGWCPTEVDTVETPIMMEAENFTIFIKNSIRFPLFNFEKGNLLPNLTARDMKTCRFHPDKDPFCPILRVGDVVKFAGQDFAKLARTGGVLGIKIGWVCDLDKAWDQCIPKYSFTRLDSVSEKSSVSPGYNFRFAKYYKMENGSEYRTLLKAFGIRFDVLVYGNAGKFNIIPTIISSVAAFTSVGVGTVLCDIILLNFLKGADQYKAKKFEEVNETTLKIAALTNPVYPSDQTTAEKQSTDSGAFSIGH", "test": "Evaluation of human P2X3 receptor inhibitory activity (Fluo-3 calcium fluorescence, FDSS 3000, ATP stimulation);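 also: stimulus was 50 nM ATP with fluorescence followed for 3 min, and the response per well was peak post-ATP fluorescence divided by the reading at measurement start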", "format": "cell-based", "conditions": "C6BU-1 cells stably expressing human P2X3 receptor", "units": {"IC50": "nM"}, "values": [{"compound": "COC(=O)C(C)(C)n1c(=O)[nH]/c(=N\\c2ccc(O)c(Cl)c2)n(Cc2ccc(Cl)cc2)c1=O", "note": "[Compound I-0676]", "IC50": 30}, {"compound": "CCOc1ccc(/N=c2\\[nH]c(=O)n(C[C@H](C)C(=O)O)c(=O)n2Cc2ccc(C)cc2)cc1Cl", "note": "[Compound I-0682]", "IC50": 23}, {"compound": "Cn1c(=O)[nH]/c(=N\\c2ccc(Oc3ccnc(C(=O)O)c3)cc2)n(Cc2ccc(Cl)cc2)c1=O", "note": "[Compound I-2099]", "IC50": 8}, {"compound": "COC(=O)[C@H](C)[C@H](C)n1c(=O)[nH]/c(=N\\c2ccc(OCC(C)C)cc2)n(Cc2ccc(C)cc2)c1=O", "note": "[Compound I-1331]", "IC50": 56}, {"compound": "CC(C)COc1ccc(/N=c2\\[nH]c(=O)n([C@@H](C)[C@@H](C)C(=O)O)c(=O)n2Cc2ccc(Cl)cc2)cc1", "note": "[Compound I-1386]", "IC50": 28}, {"compound": "COC(=O)CCCn1c(=O)[nH]/c(=N\\c2ccc(Oc3ccc(C)nc3)cc2)n(Cc2ccc(Cl)cc2)c1=O", "note": "[Compound I-1368]", "IC50": 5}, {"compound": "CC(C)Oc1ccc(/N=c2\\[nH]c(=O)n(CCN/C(=N\\C#N)Oc3ccccc3)c(=O)n2Cc2ccc(Cl)cc2)cc1F", "note": "[Compound I-0652, 1-(4-chlorobenzyl)-6-(3-fluoro-4-isopropoxyphenylimino)-3-(4-cyanoimino-4-phenoxy-3-azabutyl)-1,3,5-triazinane-2,4-dion]", "IC50": 102}, {"compound": "O=C(O)CCn1c(=O)[nH]/c(=N\\c2ccc(OC3CCC3)c(Cl)c2)n(Cc2ccc(Cl)cc2)c1=O", "note": "[Compound I-1333]", "IC50": 52}, {"compound": "CC(C)Oc1ccc(/N=c2\\[nH]c(OCC(=O)O)nc(=O)n2Cc2ccc(Cl)cc2)cc1F", "note": "[Compound I-0581]", "IC50": 145}, {"compound": "NC(=O)CCn1c(=O)[nH]/c(=N\\c2ccc(OCC3CC3)cc2)n(Cc2ccc(Cl)cc2)c1=O", "note": "[Compound I-1914]", "IC50": 46}, {"compound": "Cc1ccc(Cn2c(=O)n(CCCCC(=O)O)c(=O)[nH]/c2=N\\c2ccc3nc(C)sc3c2)cc1", "note": "[Compound I-2158]", "IC50": 29}, {"compound": "COC(=O)[C@@H](C)Cn1c(=O)[nH]/c(=N\\c2ccc3nc(C)c(C)nc3c2)n(Cc2ccc(Cl)cc2)c1=O", "note": "[Compound I-1320]", "IC50": 365}, {"compound": "CCOc1ccc(/N=c2\\[nH]c(=O)n(C[C@H](C)C(=O)O)c(=O)n2Cc2ccc(Cl)cc2)cc1F", "note": "[Compound I-0609]", "IC50": 31}, {"compound": "CCOC(=O)CCn1c(=O)[nH]/c(=N\\c2ccc(OC3CCC3)c(Cl)c2)n(Cc2ccc(C)cc2)c1=O", "note": "[Compound I-1328]", "IC50": 12}, {"compound": "Cc1[nH]c2ccc(/N=c3\\[nH]c(=O)n(CC(CO)CO)c(=O)n3Cc3ccc(Cl)cc3)cc2c1C", "note": "[Compound I-1935]", "IC50": 9}]}, {"target": "human P2X3 receptor (Homo sapiens (Human), UniProt P56373)", "test": "Evaluation of human P2X3 receptor inhibitory activity (Fluo-3 calcium fluorescence, FDSS 3000, ATP stimulation)", "format": "cell-based", "conditions": "C6BU-1 cells stably expressing human P2X3 receptor, Fluo-3 fluorescence, FDSS 3000", "units": {"IC50": "nM"}, "values": [{"compound": "COC(=O)[C@@H](O)Cn1c(=O)[nH]/c(=N\\c2ccc(OC(C)C)c(C)c2)n(Cc2ccc(Cl)cc2)c1=O", "note": "[Compound I-0994, (S)-1-(4-chlorobenzyl)-6-(3-mehyl-4-isopropoxyphenylimino)-3-(2-methoxycarbonyl-2-hydroxyethyl)-1,3,5-triazinane-2,4-dion]", "IC50": 20}, {"compound": "COC(=O)[C@@H](C)Cn1c(=O)[nH]/c(=N\\c2ccc(C3=CCCCC3)cc2)n(Cc2ccc(C)cc2)c1=O", "note": "[Compound I-1078]", "IC50": 218}, {"compound": "CCc1oc2ccc(/N=c3\\[nH]c(=O)n(CC4COC(C)(C)OC4)c(=O)n3Cc3ccc(Cl)cc3)cc2c1C", "note": "[Compound I-1840]", "IC50": 7}, {"compound": "CCC(CC)Oc1ccc(/N=c2\\[nH]c(=O)n(C[C@H](C)C(=O)O)c(=O)n2Cc2ccc(C)cc2)cc1", "note": "[Compound I-1062]", "IC50": 37}, {"compound": "CC[C@@H](C)Oc1ccc(/N=c2\\[nH]c(=O)n([C@H](C)CC(=O)O)c(=O)n2Cc2ccc(C)cc2)cc1C", "note": "[Compound I-0937]", "IC50": 22}, {"compound": "Cc1ccc(Cn2c(=O)n([C@@H](C)[C@@H](C)C(=O)O)c(=O)[nH]/c2=N\\c2ccc(OC(C)C)cc2)cc1", "note": "[Compound I-1082]", "IC50": 63}, {"compound": "Cc1ccc(Cn2c(=O)n(C[C@H](C)C(=O)O)c(=O)[nH]/c2=N\\c2ccc(CC(C)C)c(C)c2)cc1", "note": "[Compound I-1044]", "IC50": 19}, {"compound": "COC(=O)[C@@H](C)Cn1c(=O)[nH]/c(=N\\c2cccc(C3CCCCC3)c2)n(Cc2ccc(C)cc2)c1=O", "note": "[Compound I-1088]", "IC50": 548}, {"compound": "O=c1[nH]/c(=N\\c2ccc(Oc3ccnc(O)c3)cc2)n(Cc2ccc(Cl)cc2)c(=O)n1CC(CO)CO", "note": "[Compound I-1714]", "IC50": 3}, {"compound": "Cc1cc(Oc2ccc(/N=c3\\[nH]c(=O)n(C[C@H](C)C(=O)O)c(=O)n3Cc3ccc(Cl)cc3)cc2)no1", "note": "[Compound I-1662]", "IC50": 11}, {"compound": "C=C(C)c1ccc(Cn2c(=O)n(C[C@H](C)C(=O)OC)c(=O)[nH]/c2=N\\c2ccc(OC(C)C)c(C)c2)cc1", "note": "[Compound I-0995]", "IC50": 276}, {"compound": "CCc1oc2ccc(/N=c3\\[nH]c(=O)n(CC4(C)COC(C)(C)OC4)c(=O)n3Cc3ccc(Cl)cc3)cc2c1C", "note": "[Compound I-1636]", "IC50": 9}, {"compound": "C=Cc1ccc(Cn2c(=O)n(C[C@H](C)C(=O)O)c(=O)[nH]/c2=N\\c2ccc(OC(C)C)c(C)c2)cc1", "note": "[Compound I-0897, (S)-1-(4-vinylbenzyl)-6-(3-mehyl-4-isopropoxyphenylimino)-3-(2-hydroxycarbonylpropyl)-1,3,5-triazinane-2,4-dion]", "IC50": 25}, {"compound": "CC(=O)NCCCn1c(=O)[nH]/c(=N\\c2ccc(CC(C)C)c(Cl)c2)n(Cc2ccc(Cl)cc2)c1=O", "note": "[Compound I-1614]", "IC50": 9}, {"compound": "Cc1ccc(Cn2c(=O)n(C[C@H](C)C(=O)O)c(=O)[nH]/c2=N\\c2ccc(C3=CCCC3)cc2)cc1", "note": "[Compound I-1114]", "IC50": 214}, {"compound": "COC(=O)[C@@H](C)Cn1c(=O)[nH]/c(=N\\c2cccc(CC(C)C)c2)n(Cc2ccc(C)cc2)c1=O", "note": "[Compound I-1132]", "IC50": 586}, {"compound": "CNC(=O)Cn1c(=O)[nH]/c(=N\\c2ccc3nc(C)sc3c2)n(Cc2ccc(Cl)cc2)c1=O", "note": "[Compound I-1660]", "IC50": 5}, {"compound": "COC(=O)[C@@H](C)Cn1c(=O)[nH]/c(=N\\c2ccc(Oc3ccccc3)cc2)n(Cc2ccc(Cl)cc2)c1=O", "note": "[Compound I-0989, (S)-1-(4-chlorobenzyl)-3-(2-methoxycarbonylpropyl)-6-(4-phenoxy-phenylimino)-1,3,5-triazinane-2,4-dion]", "IC50": 68}, {"compound": "Cc1ccc(Cn2c(=O)n(C[C@H](C)C(=O)O)c(=O)[nH]/c2=N\\c2ccc(Oc3ccn(C)c(=O)c3)cc2)cc1", "note": "[Compound I-1595]", "IC50": 6}, {"compound": "Cc1cc(Oc2ccc(/N=c3\\[nH]c(=O)n(CC(=O)O)c(=O)n3Cc3ccc(Cl)cc3)cc2)ccn1", "note": "[Compound I-1800]", "IC50": 510}, {"compound": "COC(=O)C(C)(C)Cn1c(=O)[nH]/c(=N\\c2ccc3nc(C)sc3c2)n(Cc2ccc(C)cc2)c1=O", "note": "[Compound I-1571]", "IC50": 4}]}, {"target": "human P2X3 receptor (Homo sapiens (Human), UniProt P56373)", "test": "Evaluation of human P2X3 receptor inhibitory activity (Fluo-3 calcium fluorescence, FDSS 3000, ATP stimulation)", "format": "cell-based", "conditions": "human P2X3 receptor, Test Example 1", "units": {"IC50": "nM"}, "values": [{"compound": "CCOC(=O)C(F)(F)Cn1c(=O)[nH]/c(=N\\c2ccc(OC(C)C)c(C)c2)n(Cc2ccc(C)cc2)c1=O", "note": "[Compound I-0855]", "IC50": 10}, {"compound": "Cn1c(=O)[nH]/c(=N\\c2ccc(Oc3nccc(C(N)=O)n3)cc2)n(Cc2ccc(Cl)cc2)c1=O", "note": "[Compound I-2380]", "IC50": 29}, {"compound": "Cn1c(=O)[nH]/c(=N\\c2ccc(Oc3cccc(C(=O)O)n3)cc2)n(C[C@H]2CC[C@H](C)CC2)c1=O", "note": "[Compound I-2465]", "IC50": 4}, {"compound": "Cc1cc(/N=c2\\[nH]c(=O)n(C[C@H](C)C(=O)O)c(=O)n2Cc2ccc(Cl)cc2)ccc1OCC(C)C", "note": "[Compound I-0835]", "IC50": 78}, {"compound": "CCn1c(=O)[nH]/c(=N\\c2cccc(Oc3cccc(C#N)n3)c2)n(Cc2ccc(Cl)cc2)c1=O", "note": "[Compound I-2591]", "IC50": 51}, {"compound": "CCn1c(=O)[nH]/c(=N\\c2ccc(Oc3ccnc(NCC(=O)O)c3)cc2)n(Cc2ccc(Cl)cc2)c1=O", "note": "[Compound I-2556]", "IC50": 5}, {"compound": "CNC(=O)Cn1c(=O)[nH]/c(=N\\c2ccc(Oc3cnsn3)cc2)n(Cc2ccc(Cl)cc2)c1=O", "note": "[Compound I-2676]", "IC50": 13}, {"compound": "O=c1[nH]/c(=N\\c2ccc(Oc3cccnn3)cc2)n(Cc2ccc(Cl)cc2)c(=O)n1CC(CO)CO", "note": "[Compound I-2692]", "IC50": 8}, {"compound": "O=c1[nH]/c(=N\\c2ccc(Oc3ccon3)cc2)n(Cc2ccc(Cl)cc2)c(=O)n1C[C@@H](O)CO", "note": "[Compound I-2408]", "IC50": 14}, {"compound": "Cc1ccc(Cn2c(=O)n(C[C@H](C)C(=O)O)c(=O)[nH]/c2=N\\c2ccc(CC(C)C)c(Cl)c2)cn1", "note": "[Compound I-1485]", "IC50": 235}, {"compound": "CC(C)Oc1ccc(/N=c2\\[nH]c(=S)n(C(C)C)c(=O)n2Cc2ccc(Cl)cc2)cc1Cl", "note": "[Compound I-2257, 1-(4-chlorobenzyl)-3-isopropyl-6-(3-chloro-4-isopropoxyphenylimino)-4-thioxo-1,3,5-triazinane-2-one]", "IC50": 151}, {"compound": "Cc1nc(-c2ccc(/N=c3\\[nH]c(=O)n(C[C@H](C)C(=O)O)c(=O)n3Cc3ccc(Cl)cc3)cc2)no1", "note": "[Compound I-1530]", "IC50": 93}, {"compound": "CCOC(=O)C1(Cn2c(=O)[nH]/c(=N\\c3ccc4oc(CC)c(C)c4c3)n(Cc3ccc(Cl)cc3)c2=O)CC1", "note": "[Compound I-1538]", "IC50": 17}, {"compound": "Cc1nnc(Oc2ccc(/N=c3\\[nH]c(=O)n(C[C@H](O)CO)c(=O)n3Cc3ccc(Cl)cc3)cc2)s1", "note": "[Compound I-2511]", "IC50": 235}, {"compound": "Cc1ccc(Cn2c(=O)n(C)c(=O)[nH]/c2=N\\c2ccc(Oc3cccc(C(=O)O)n3)cc2)cc1", "note": "[Compound I-2268]", "IC50": 6}, {"compound": "CCCOc1ccc(/N=c2\\[nH]c(=O)n(C[C@H](C)C(=O)O)c(=O)n2Cc2ccc(C)cc2)cc1", "note": "[Compound I-0828]", "IC50": 25}, {"compound": "CCOC(=O)Cn1c(=O)[nH]/c(=N\\c2ccc(Oc3ccon3)cc2)n(Cc2ccc(Cl)cc2)c1=O", "note": "[Compound I-2627]", "IC50": 7}, {"compound": "Cn1c(=O)[nH]/c(=N\\c2ccc(Oc3cc(C(N)=O)ccn3)cc2)n(Cc2ccc(Cl)cc2)c1=O", "note": "[Compound I-2376]", "IC50": 20}, {"compound": "CCn1c(=O)[nH]/c(=N\\c2ccc(Oc3nc(C(=O)O)cs3)cc2)n(Cc2ccc(F)cc2)c1=O", "note": "[Compound I-2568]", "IC50": 87}, {"compound": "CCn1c(=O)[nH]/c(=N\\c2ccc(Oc3ccc(NC(=O)NC4CC4)nc3)cc2)n(Cc2ccc(Cl)cc2)c1=O", "note": "[Compound I-2243]", "IC50": 6}, {"compound": "Cc1nsc(Oc2ccc(/N=c3\\[nH]c(=O)n(CCC(=O)O)c(=O)n3Cc3ccc(Cl)cc3)cc2)n1", "note": "[Compound I-2697]", "IC50": 19}, {"compound": "O=c1[nH]/c(=N\\c2ccc(Oc3ccon3)cc2)n(Cc2ccc(F)cc2)c(=O)n1CCCO", "note": "[Compound I-2397]", "IC50": 39}, {"compound": "CCn1c(=O)[nH]/c(=N\\c2ccc(Oc3ncc(C(=O)OC)cn3)cc2)n(Cc2ccc(Cl)cc2)c1=O", "note": "[Compound I-2322]", "IC50": 6}]}]}
